Values quoted from earlier work in patent publication US10406122B2 (priority 2011, dated 2019).

Legend:
[1] = tramadol […] [100 mg] p.o., single dose; cited from earlier work
[2] = test system: experienced opioid abusers; conditions: cited from earlier work
postoperative pain = conditions: after 4 to 6 hours, IV or IM intermittent injection; cited from earlier work
[3] = test system: patients undergoing abdominal surgery; conditions: within the first 90 minutes of treatment; cited from earlier work

## (+)-O-desmethyltramadol [(+)-M1]
[1]
  AUC: 1258 ± 410 ng·h/mL
  Cmax: 147 ± 39 ng/mL
  Tmax: 1.6 ± 0.5 h
  t1/2: 6.0 ± 1.0 h

## CN1CC[C@]23c4c5ccc(O)c4O[C@H]2[C@@H](O)C=C[C@H]3[C@H]1C5 [morphine]
[2]; IV over 5 minutes
  ratings of feel drug effect compared to placebo: significantly increased ratings
[2]; tramadol 100 and 200 mg IV, morphine 10 and 20 mg IV, over 5 minutes
  ratings of liking / ARCI-MBG scale: significantly increased ratings
Postoperative pain
  reduction of pain intensity: 69.8%
[3]
  responder rate (no or slight pain): 81.2%
